Experimental data from ChEMBL document CHEMBL1152560, “Substituted 2-arylbenzothiazoles as kinase inhibitors: hit-to-lead optimization” (Bioorg Med Chem, 2009).

Legend:
[1] = target: RAC-gamma serine/threonine-protein kinase (Homo sapiens) (UniProt Q9Y243); experiment: Residual activity of AKT3 at 10 uM by microplate scintillation counting
[2] = target: T1, Serine/threonine-protein kinase D2 (Homo sapiens) (UniProt Q9BZL6); experiment: Residual activity of PRKD2 at 10 uM by microplate scintillation counting
T1 sequence (whole entry): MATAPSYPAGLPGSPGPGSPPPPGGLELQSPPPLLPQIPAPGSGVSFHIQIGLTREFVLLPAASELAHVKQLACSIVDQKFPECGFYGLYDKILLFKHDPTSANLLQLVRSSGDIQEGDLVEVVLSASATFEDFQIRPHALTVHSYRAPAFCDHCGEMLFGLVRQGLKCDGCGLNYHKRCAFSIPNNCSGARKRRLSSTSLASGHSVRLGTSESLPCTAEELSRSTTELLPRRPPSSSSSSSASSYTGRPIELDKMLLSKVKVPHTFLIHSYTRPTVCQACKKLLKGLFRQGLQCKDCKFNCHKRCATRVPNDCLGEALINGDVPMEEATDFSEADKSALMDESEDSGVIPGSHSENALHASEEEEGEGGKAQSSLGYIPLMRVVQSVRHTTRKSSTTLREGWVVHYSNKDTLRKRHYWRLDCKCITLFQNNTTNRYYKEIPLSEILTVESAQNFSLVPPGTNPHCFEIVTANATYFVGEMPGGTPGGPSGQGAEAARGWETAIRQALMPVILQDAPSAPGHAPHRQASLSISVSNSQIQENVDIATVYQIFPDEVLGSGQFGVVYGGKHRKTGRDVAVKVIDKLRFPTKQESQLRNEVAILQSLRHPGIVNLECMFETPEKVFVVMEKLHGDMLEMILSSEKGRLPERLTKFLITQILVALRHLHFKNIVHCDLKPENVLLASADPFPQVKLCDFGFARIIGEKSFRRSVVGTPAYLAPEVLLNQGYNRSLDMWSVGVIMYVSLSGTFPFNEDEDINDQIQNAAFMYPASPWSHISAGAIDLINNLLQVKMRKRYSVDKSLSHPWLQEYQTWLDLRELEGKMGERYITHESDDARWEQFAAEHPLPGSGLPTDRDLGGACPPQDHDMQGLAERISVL

[3] = target: Serine/threonine-protein kinase Nek6 (Homo sapiens) (UniProt Q9HC98); experiment: Residual activity of NEK6 at 1 uM by microplate scintillation counting
[4] = target: Serine/threonine-protein kinase SIK2 (Homo sapiens) (UniProt Q9H0K1); experiment: Residual activity of SNF1LK2 at 1 uM by microplate scintillation counting
[5] = target: PAS domain-containing serine/threonine-protein kinase (Homo sapiens) (UniProt Q96RG2); experiment: Residual activity of PASK at 1 uM by microplate scintillation counting
[6] = target: Activin receptor type-1-like (Homo sapiens) (UniProt P37023); experiment: Residual activity of ACV-RL1 at 1 uM by microplate scintillation counting
[7] = target: T2, Testis-specific serine/threonine-protein kinase 1 (Homo sapiens) (UniProt Q9BXA7); experiment: Residual activity of TSSK1 at 1 uM by microplate scintillation counting
T2 sequence (whole entry): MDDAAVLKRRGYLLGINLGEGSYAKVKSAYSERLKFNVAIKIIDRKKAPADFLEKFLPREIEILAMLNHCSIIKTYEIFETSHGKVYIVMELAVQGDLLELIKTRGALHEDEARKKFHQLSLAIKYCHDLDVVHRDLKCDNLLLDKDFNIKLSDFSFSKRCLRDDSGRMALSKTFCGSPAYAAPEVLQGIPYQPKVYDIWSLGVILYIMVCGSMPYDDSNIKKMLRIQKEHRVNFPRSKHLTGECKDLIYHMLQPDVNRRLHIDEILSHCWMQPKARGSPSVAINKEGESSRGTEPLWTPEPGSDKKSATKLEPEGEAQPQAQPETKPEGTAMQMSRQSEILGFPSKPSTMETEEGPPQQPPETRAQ

[8] = target: Protein kinase C theta type (Homo sapiens) (UniProt Q04759); experiment: Residual activity of PKCtheta at 1 uM by microplate scintillation counting
[9] = target: Rho-associated protein kinase 2 (Homo sapiens) (UniProt O75116); experiment: Residual activity of ROCK2 at 10 uM by microplate scintillation counting
[10] = target: Platelet-derived growth factor receptor alpha (Homo sapiens) (UniProt P16234); experiment: Residual activity of PDGFRalpha at 10 uM by microplate scintillation counting
[11] = target: Serine/threonine-protein kinase MARK2 (Homo sapiens) (UniProt Q7KZI7); experiment: Residual activity of MARK2 at 1 uM by microplate scintillation counting
[12] = target: T3, cGMP-dependent protein kinase 2 (Homo sapiens) (UniProt Q13237); experiment: Residual activity of PRKG2 at 0.1 uM by microplate scintillation counting
T3 sequence (whole entry): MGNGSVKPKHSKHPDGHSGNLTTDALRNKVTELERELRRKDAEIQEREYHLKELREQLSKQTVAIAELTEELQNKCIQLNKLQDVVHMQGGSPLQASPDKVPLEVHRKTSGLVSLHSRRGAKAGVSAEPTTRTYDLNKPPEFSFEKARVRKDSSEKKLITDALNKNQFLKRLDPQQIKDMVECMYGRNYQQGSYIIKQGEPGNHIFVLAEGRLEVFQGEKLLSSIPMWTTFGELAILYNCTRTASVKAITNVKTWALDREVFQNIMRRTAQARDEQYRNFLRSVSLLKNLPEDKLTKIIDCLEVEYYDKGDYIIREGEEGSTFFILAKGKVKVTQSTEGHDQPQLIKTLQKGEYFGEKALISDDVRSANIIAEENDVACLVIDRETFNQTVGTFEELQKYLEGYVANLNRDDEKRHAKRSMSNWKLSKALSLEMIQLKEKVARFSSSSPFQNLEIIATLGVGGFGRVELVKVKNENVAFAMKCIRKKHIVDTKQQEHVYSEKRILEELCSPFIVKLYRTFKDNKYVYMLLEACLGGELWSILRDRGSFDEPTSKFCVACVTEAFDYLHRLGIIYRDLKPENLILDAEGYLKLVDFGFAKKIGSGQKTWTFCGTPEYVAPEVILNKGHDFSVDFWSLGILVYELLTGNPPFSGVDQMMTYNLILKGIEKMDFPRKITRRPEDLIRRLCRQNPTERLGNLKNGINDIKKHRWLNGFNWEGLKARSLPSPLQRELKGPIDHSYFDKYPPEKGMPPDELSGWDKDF

Chain of Serine/threonine-protein kinase SIK2 (Homo sapiens) (Q9H0K1 whole entry, looked up, the tested form may be a part): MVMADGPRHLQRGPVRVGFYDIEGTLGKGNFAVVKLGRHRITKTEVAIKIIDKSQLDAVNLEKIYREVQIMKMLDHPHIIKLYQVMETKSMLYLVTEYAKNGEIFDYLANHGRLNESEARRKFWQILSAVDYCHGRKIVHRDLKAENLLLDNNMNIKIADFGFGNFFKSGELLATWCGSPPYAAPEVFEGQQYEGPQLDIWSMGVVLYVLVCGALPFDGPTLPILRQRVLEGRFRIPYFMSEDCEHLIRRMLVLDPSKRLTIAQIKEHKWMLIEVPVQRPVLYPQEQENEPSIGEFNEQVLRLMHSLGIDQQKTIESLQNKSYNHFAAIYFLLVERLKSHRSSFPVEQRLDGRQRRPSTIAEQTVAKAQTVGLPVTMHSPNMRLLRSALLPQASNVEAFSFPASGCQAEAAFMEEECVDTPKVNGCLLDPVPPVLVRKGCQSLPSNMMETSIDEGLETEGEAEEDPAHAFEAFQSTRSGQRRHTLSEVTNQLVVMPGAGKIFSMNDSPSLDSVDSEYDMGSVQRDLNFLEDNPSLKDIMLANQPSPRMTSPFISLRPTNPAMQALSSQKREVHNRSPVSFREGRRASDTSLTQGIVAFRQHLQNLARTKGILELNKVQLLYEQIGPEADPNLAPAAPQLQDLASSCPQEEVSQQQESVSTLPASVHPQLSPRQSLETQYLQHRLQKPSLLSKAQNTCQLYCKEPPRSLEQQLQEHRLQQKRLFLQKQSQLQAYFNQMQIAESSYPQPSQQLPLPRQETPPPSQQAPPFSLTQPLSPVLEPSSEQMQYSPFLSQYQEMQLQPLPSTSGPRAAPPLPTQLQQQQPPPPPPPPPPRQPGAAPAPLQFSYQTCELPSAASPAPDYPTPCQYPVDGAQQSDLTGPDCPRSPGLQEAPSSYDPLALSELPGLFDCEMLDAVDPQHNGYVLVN
Chain of Platelet-derived growth factor receptor alpha (Homo sapiens) (P16234 whole entry): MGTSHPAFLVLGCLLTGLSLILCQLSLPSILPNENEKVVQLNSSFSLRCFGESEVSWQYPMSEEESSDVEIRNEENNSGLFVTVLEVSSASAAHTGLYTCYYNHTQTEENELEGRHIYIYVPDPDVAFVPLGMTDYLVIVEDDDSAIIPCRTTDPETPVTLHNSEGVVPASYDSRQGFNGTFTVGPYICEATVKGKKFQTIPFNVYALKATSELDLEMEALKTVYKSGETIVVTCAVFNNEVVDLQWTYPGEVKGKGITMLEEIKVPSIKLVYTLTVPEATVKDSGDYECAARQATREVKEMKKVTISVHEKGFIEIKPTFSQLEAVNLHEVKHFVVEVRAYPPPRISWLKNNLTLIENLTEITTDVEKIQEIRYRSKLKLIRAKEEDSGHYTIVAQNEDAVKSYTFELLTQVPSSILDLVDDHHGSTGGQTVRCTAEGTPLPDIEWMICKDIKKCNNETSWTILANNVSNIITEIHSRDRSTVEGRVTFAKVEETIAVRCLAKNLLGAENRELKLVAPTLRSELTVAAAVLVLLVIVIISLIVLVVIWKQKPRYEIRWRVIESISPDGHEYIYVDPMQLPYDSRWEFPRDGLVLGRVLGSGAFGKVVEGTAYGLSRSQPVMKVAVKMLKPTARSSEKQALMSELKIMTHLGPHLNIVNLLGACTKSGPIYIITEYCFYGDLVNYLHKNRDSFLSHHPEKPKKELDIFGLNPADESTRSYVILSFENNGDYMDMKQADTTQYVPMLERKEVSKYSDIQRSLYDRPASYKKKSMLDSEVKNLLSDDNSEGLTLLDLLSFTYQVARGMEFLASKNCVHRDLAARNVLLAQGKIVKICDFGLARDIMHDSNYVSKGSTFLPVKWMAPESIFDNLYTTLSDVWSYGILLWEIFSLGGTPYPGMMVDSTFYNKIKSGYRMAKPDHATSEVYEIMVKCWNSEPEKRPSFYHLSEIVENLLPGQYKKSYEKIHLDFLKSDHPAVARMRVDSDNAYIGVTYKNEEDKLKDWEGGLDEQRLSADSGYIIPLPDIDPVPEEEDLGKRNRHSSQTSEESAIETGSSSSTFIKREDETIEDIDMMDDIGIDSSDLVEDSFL
Chain of Serine/threonine-protein kinase Nek6 (Homo sapiens) (Q9HC98 whole entry): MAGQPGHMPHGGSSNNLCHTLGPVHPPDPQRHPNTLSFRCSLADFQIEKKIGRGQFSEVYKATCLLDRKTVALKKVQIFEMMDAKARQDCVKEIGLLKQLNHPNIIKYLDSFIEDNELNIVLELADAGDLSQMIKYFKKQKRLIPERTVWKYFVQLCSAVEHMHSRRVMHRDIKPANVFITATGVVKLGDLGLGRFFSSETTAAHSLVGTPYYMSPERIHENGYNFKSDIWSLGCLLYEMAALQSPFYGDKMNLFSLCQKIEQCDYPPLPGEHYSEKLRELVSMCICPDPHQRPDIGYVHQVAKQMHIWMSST
Chain of Protein kinase C theta type (Homo sapiens) (Q04759 whole entry, looked up): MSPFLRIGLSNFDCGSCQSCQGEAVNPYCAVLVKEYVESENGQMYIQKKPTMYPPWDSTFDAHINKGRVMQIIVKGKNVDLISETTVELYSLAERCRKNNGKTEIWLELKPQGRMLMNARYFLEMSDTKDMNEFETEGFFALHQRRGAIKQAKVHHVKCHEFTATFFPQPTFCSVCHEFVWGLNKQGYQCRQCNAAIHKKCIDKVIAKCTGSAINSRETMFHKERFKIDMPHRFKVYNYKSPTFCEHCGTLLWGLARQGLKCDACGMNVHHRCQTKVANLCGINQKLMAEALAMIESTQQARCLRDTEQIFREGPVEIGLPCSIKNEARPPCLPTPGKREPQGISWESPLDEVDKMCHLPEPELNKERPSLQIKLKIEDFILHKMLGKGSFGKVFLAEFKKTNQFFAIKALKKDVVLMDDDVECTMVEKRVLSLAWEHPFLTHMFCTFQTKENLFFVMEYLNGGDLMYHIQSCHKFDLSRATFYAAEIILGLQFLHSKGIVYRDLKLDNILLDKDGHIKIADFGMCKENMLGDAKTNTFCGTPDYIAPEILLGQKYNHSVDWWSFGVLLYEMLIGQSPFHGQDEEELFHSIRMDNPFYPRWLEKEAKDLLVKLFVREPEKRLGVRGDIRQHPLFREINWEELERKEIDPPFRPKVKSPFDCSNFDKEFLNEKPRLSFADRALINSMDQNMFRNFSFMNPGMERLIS
Chain of RAC-gamma serine/threonine-protein kinase (Homo sapiens) (Q9Y243 whole entry): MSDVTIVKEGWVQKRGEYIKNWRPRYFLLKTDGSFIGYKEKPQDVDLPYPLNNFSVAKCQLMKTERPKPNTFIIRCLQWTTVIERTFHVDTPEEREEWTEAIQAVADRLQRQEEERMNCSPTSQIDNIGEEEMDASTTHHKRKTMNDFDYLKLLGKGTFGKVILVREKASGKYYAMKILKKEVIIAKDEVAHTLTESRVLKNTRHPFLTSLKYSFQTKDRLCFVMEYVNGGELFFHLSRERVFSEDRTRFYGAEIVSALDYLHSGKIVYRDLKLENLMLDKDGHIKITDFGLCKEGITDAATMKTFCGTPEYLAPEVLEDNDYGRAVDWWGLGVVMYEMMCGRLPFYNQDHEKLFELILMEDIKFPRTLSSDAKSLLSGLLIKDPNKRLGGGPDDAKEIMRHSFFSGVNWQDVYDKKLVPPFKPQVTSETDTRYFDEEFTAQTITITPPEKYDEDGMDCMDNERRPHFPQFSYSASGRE
Chain of Activin receptor type-1-like (Homo sapiens) (P37023 whole entry): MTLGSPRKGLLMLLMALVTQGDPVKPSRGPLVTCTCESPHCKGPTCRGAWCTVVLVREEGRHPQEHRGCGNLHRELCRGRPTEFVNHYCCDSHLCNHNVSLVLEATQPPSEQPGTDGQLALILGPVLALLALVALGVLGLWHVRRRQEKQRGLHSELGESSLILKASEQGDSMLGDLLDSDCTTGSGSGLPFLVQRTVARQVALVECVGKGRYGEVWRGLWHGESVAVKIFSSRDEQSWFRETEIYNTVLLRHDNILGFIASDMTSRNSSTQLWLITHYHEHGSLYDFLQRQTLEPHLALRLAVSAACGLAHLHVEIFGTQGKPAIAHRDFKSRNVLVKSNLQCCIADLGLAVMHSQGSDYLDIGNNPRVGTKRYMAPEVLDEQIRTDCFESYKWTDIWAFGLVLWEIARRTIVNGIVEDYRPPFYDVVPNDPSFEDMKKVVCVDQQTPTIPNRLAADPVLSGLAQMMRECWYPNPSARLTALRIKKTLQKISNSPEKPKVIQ
Chain of Serine/threonine-protein kinase MARK2 (Homo sapiens) (Q7KZI7 whole entry): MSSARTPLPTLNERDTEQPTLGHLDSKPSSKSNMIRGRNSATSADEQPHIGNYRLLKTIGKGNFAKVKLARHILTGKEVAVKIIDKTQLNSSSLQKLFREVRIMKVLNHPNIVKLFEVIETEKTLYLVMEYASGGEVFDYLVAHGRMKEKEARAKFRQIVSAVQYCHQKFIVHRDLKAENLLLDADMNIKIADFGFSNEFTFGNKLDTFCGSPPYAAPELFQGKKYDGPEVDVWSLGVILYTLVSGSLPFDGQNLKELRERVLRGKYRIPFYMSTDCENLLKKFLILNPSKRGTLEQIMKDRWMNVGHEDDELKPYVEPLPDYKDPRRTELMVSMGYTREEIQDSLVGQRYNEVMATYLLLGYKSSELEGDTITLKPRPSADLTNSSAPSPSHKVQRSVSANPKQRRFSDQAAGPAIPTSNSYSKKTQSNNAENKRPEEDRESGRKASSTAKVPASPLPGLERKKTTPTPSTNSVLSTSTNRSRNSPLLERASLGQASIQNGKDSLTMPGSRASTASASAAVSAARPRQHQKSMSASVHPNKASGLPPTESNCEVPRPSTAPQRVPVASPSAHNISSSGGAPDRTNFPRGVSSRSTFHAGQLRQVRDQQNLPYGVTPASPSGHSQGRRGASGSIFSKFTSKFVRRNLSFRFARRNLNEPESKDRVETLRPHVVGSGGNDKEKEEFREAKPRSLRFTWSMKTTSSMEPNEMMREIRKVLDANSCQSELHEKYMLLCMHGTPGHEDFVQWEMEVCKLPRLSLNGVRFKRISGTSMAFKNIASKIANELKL

| residual activity [1] [%] | residual activity [2] [%] | residual activity [3] [%] | residual activity [4] [%] | residual activity [5] [%] | residual activity [6] [%] | residual activity [7] [%] | residual activity [8] [%] | residual activity [9] [%] | residual activity [10] [%] | residual activity [11] [%] | residual activity [12] [%] | SMILES |
| --- | --- | --- | --- | --- | --- | --- | --- | --- | --- | --- | --- | --- |
| 79 | 136 | 84 | 78 | 94 | 92 | 40 | 111 | 84 | 15 | 86 | 84 | COc1cc2c(Oc3ccc(-c4nc5ccccc5s4)cc3)ncnc2cc1OCCCN1CCCC1 |
| 112 | 146 | 96 | 88 | 88 | 78 | 55 | 113 | 54 | 20 | 74 | 87 | COc1cc2c(Oc3ccc(-c4nc5ccccc5s4)cc3)ncnc2cc1OCCCN1CCN(C)CC1 |
| 113 | 128 | 102 | 85 | 83 | 92 | 73 | 100 | 47 | 30 | 87 | 86 | COc1cc2c(Oc3ccc(-c4nc5ccccc5s4)cc3F)ncnc2cc1OCCCN1CCN(C)CC1 |
